Tested on: RBCs of healthy whole blood
Experiment: RBC deformability (LORRCA elongation index), ex vivo TBHP oxidation of healthy whole blood
Format: cell-based, human
Conditions: for EI over vehicle control, ½ EImax and EImax: healthy donor 2, single amino acid treatments, in words
Text: Whole blood from healthy African American and/or Hispanic donors was obtained from Research Blood Components, LLC based on the following donor selection criteria: Adult age (between 18 and 50 years), normal BMI (<30), and absence of other confounding clinical conditions. Whole blood from SCD donors were obtained from BioIVT based on the following donor selection criteria: Patients with genotypes HbSS, HbSC, HbS/β^0 and at least 1-2 months gap since last blood transfusion. Whole blood was shipped on ice on the same day as blood draw. Upon receipt, the blood sample was aliquoted and stored in the refrigerator until used for studies.
RBC deformability measurements were conducted with the Laser Optical Rotational Red Cell Analyzer (LORRCA) from RR Mechatronics in a temperature-controlled environment (37° C.). Briefly, an even layer of RBCs suspended in polyvinylpyrrolidone (PVP) is subjected to shear stress gradient (0.3 to 30 Pa) through two concentric cylinders and the resulting changes in RBC shape or deformability are measured by a laser beam diffraction pattern. The captured images of RBC shape in response to increasing shear stress are then analyzed by the LORRCA program to calculate Elongation Index (EI).
Healthy RBCs have higher deformability≥0.5 EI and SCD RBCs have lower deformability or EI values as studied by LORRCA ektacytometry in the field. […] The induced hemolysis model in this disclosure involves use of tert-butyl hydroperoxide (TBHP) to lower EI of RBCs.
The ex vivo hemolysis study disclosed here involves overnight treatment of whole blood with vehicle as a control and specific amino acids followed by rapid oxidation (5 min) with TBHP. Method for oxidation of whole blood with tert-butyl hydroperoxide has been used in prior literature (Diederich L, et al, Front Physiol. 2018 May 11; 9:332). RBC deformability or shape changes are then measured with LORRCA ektacytometry.
Whole blood aliquots stored in the fridge were brought up to room temperature while gently shaking on a rocker at low speed for an hour to ensure gradual and uniform suspension of red blood cells prior to deformability measurements. Vehicle control used in the study was 1× Dulbecco's […]) and amino acids disclosed herein were added (at either final […] or 2.5 mM concentration as indicated) to corresponding vehicle and amino acid treatment conditions. The samples were then incubated overnight at 37° C. Next day, 25 μL of whole blood was taken from each treatment condition and added to 5 mL Elon ISO viscous solution from RR Mechatronics. The sample was inverted 15-20 times to ensure proper mixing of the treated RBCs with the Elon ISO solution followed by loading the sample on LORRCA and capturing RBC deformability or shape measurements over the applied shear gradient. The remaining whole blood treatments were returned to incubator (37° C.) until deformability measurements were completed for all treatments. To the remaining whole blood treatment samples, TBHP solution (5.0-6.0 M in Decane, Sigma) was added at 2.5 mM final concentration from a 100 mM freshly prepared stock and incubated for further 5 min at 37° C. 25 μL of this TBHP-treated sample was immediately removed at the end of the 5 min incubation and added to the Elon ISO solution for RBC deformability measurement after oxidation. Included in the Tables 13-15 are EI measurements at ½ EImax shear stress 1.69 Pa and EImax shear stress 30 Pa from these studies and FIG. 1 captures EI measurements for all shear stress points for the indicated treatment conditions.

Row | SMILES | EI over vehicle control, ½ EImax and EImax | effectiveness among all treatment groups (EI and fold change relative to vehicle) (healthy donor 2, in words)
1 | N=C(N)NCCC[C@H](N)C(=O)O [Arginine] | higher than the vehicle | –
2 | NC(=O)CC[C@H](N)C(=O)O [Glutamine] | higher than the vehicle | least effective
3 | CC(=O)N[C@@H](CS)C(=O)O [N-Acetyl Cysteine, N-acetylcysteine] | higher than the vehicle | –

From patent publication US11058654B2, “Compositions and methods for the treatment of hemoglobinopathies and thalassemias” (AXCELLA HEALTH INC., priority 2018, dated 2021)
